Results taken from PMC6222509, “Dibasic Derivatives of Phenylcarbamic Acid against Mycobacterial Strains: Old Drugs and New Tricks?” (Molecules : A Journal of Synthetic Chemistry and Natural …, 2018).
In brackets after ≈: the same amount, converted by molar mass. Where two headings read alike, the source gives them in different places.

Columns and labels:
[1] = system: M. marinum CAMP 5644 (MM); experiment: in vitro antimycobacterial MIC, broth dilution micromethod in Middlebrook 7H9; format: cell-based, Mycobacterium marinum; settings: Mycobacterium marinum, 504 h; 21-day cultivation, 28 °C; read-out: MIC MM 21-d
[2] = system: M. avium CNCTC My 330/80 (identical with ATCC 25291; MA 330/80); experiment: in vitro antimycobacterial MIC, dilution micromethod in Šula's semisynthetic medium; format: cell-based, Mycobacterium avium; settings: Mycobacterium avium
[3] = system: M. smegmatis ATCC 700084 (MS); experiment: in vitro antimycobacterial MIC, broth dilution micromethod in Middlebrook 7H9; format: cell-based, Mycobacterium smegmatis; settings: Mycolicibacterium smegmatis, ATCC700084, 72 h; 3-day cultivation, 37 °C; read-out: MIC MS 3-d
[4] = system: M. tuberculosis H37Ra ATCC 25177 (MTa H37Ra); experiment: in vitro antimycobacterial MIC, 96-well Middlebrook broth, alamarBlue; format: cell-based, Mycobacterium tuberculosis; settings: Mycobacterium tuberculosis, 168 h, 7-day cultivation; read-out: MIC MTa H37Ra 7-d
Method: In vitro susceptibitity of given mycobacteria to reference drugs isoniazid (INH), ethambutol (EMB), ofloxacin (OFLX) or ciprofloxacin (CPX) was tested as well (Table 6 and Table 7).
A value of a minimum inhibitory concentration (MIC) was the lowest concentration of a tested compound, (i) which inhibited growth of MTv H37Rv, MK 235/80, MK 6509/96 and MA 330/80, respectively; (ii) at which no visible growth of MTa H37Ra, MS, MK DSM as well as MM was observed.
The molecules 1a–p were also in vitro screened against an avirulent M. tuberculosis H37Ra ATCC 25177 (MTa H37Ra), M. kansasii DSM 44162 (MK DSM), M. smegmatis ATCC 700084 (MS) and M. marinum CAMP 5644 (MM), respectively, in the Department of Infectious Diseases and Microbiology (Faculty of Veterinary Medicine, University of Veterinary and Pharmaceutical Sciences in Brno, Czech Republic).
Determination of a minimum inhibitory concentration (MIC) against MTa H37Ra. The mycobacterium was grown on Middlebrook broth (MB; MiddleBrook Pharmaceuticals, Inc., Westlake, TX, USA), supplemented with Oleic-Albumin-Dextrose-Catalase (OADC) supplement (Difco, Lawrence, KS, USA) and salicylate-derived mycobactin J (2 μg/mL; Allied Monitor Inc., Fayette, MO, USA), an iron-binding siderophore.
At log phase growth, a culture sample (10 mL) was centrifuged at 15,000 rpm/20 min using a bench top centrifuge MPW-65R (MPW Med Instruments, Warsaw, Poland). Following removal of the supernatant, a pellet was washed in fresh liquid Middlebrook 7H9GC broth (MiddleBrook Pharmaceuticals, Inc.) and re-suspended in a fresh OADC-supplemented MB (10 mL).
Turbidity was adjusted to match the McFarland standard No. 1 [87] containing approximately 3 × 10^8 Colony Forming Units (CFU) with MB broth. Further 1:20 dilution of the culture was performed in MB broth.
Susceptibility of MTa H37Ra was investigated in a 96-well plate format. In the experiments, sterile deionized water (300 µL) was added to all outer-perimeter wells of the plates to minimize evaporation of the medium in test wells during incubation. Each evaluated compound (100 µL) was incubated with MTa H37Ra (100 µL). Dilutions of each compound were prepared in triplicate and final concentrations varied from 1000 μg/mL to 8 μg/mL. All tested molecules were dissolved in DMSO (Sigma-Aldrich, Irvine, UK), and subsequent dilutions were made in supplemented MB broth. The plates were sealed with parafilm and incubated at 37 °C for 7 days.
Following incubation, 10% addition a water-soluble dye, the alamarBlue reagent (AbD Serotec, Kidlington, UK) was mixed into each well. This resaurin-based reagent served as an oxidation-reduction indicator of metabolic function and cellular health in cell viability bioassays.
Absorbance readings at 570 nm and 600 nm were taken, initially for background subtraction and after 24h re-incubation. The subtraction is necessary for strongly colored compounds, where the color may interfere with the interpretation of any color change. For non-interfering compounds, a blue color in a well was interpreted as absence of growth and pink color was scored as growth.
The minimum inhibitory concentration (MIC) was defined as the lowest concentration of a compound, at which no visible bacterial growth was observed. In other words, the MIC was the lowest concentration that prevented visual color change from blue to pink.

[5] = system: Mycobacterium tuberculosis CNCTC My 331/88 (identical with H37Rv and ATCC 2794; MTv H37Rv); experiment: in vitro antimycobacterial MIC, dilution micromethod in Šula's semisynthetic medium; format: cell-based; settings: Mycobacterium tuberculosis
[6] = system: M. kansasii CNCTC My 235/80 (identical with ATCC 12478; MK 235/80); experiment: as above; format: cell-based, Mycobacterium kansasii; settings: Mycobacterium kansasii
guinea pig = system: guinea pig; design: method as in PMID 8402965; settings: intradermal, 0.02 M procaine as standard; cited from earlier work
rabbit cornea = system: rabbit cornea; design: method as in PMID 8402965; settings: 0.01 M cocaine as standard; cited from earlier work
white mice = settings: subcutaneous application; cited from earlier work
[7] = system: M. kansasii DSM 44162 (MK DSM); experiment: in vitro antimycobacterial MIC, broth dilution micromethod in Middlebrook 7H9; format: cell-based; settings: Mycobacterium kansasii, DSM 44162 / DSM 7, 168 h; 7-day cultivation, 37 °C; read-out: MIC MK DSM 7-d
[8] = ATCC25291, 336 h, 14-day cultivation, read-out: MIC MA 330/80 14-d
[9] = ATCC25291, 504 h, 21-day cultivation, read-out: MIC MA 330/80 21-d
[10] = 336 h, 14-day cultivation, read-out: MIC MTv H37Rv 14-d
[11] = 504 h, 21-day cultivation, read-out: MIC MTv H37Rv 21-d
[12] = ATCC12478, 168 h, 7-day cultivation, read-out: MIC MK 235/80 7-d
[13] = ATCC12478, 336 h, 14-day cultivation, read-out: MIC MK 235/80 14-d
[14] = ATCC12478, 504 h, 21-day cultivation, read-out: MIC MK 235/80 21-d

In the case of NNC(=O)c1ccncc1 [INH, isoniazid, reference compound], the MIC [1] is reported as 467 µM (≈ 64 µg/mL), the MIC [2, 8] is reported as greater than 250 µM and the MIC [2, 9] is reported as greater than 250 µM. For the same compound, the MIC [3] was 117 µM (≈ 16 µg/mL), the MIC [4] was 36.5 µM (≈ 5.01 µg/mL) and the MIC [5, 10] was 0.5 µM (≈ 0.0686 µg/mL). For the same compound, the MIC [5, 11] was 1 µM (≈ 0.137 µg/mL), the MIC [6, 12] was greater than 250 µM and the MIC [6, 13] was greater than 250 µM. The MIC [6, 14] was greater than 250 µM.

For COC(=O)[C@H]1[C@@H](OC(=O)c2ccccc2)C[C@@H]2CC[C@H]1N2C [cocaine], the “Ui, index of relative infiltration local anesthetic efficiency” value (guinea pig) is given as 3.6, the “Us, index of relative surface local anesthetic efficiency” value (rabbit cornea) is given as 1.0 and the LD50 (white mice) is given as 125 mg/kg.

CC[C@@H](CO)NCCN[C@@H](CC)CO [EMB, ethambutol, reference compound] gave an MIC [2, 8] of 16 µM (≈ 3.27 µg/mL), an MIC [2, 9] of 16 µM (≈ 3.27 µg/mL) and an MIC ([2]; ATCC25291, cultivation time not given, read-out: MIC MA 330/80) of 16 µM (≈ 3.27 µg/mL). It also gave an MIC [5, 10] of 1 µM (≈ 0.204 µg/mL) and an MIC [5, 11] of 2 µM (≈ 0.409 µg/mL).

In the case of CCN(CC)CCOC(=O)c1ccc(N)cc1 [procaine], the “Ui, index of relative infiltration local anesthetic efficiency” value (guinea pig) is given as 1.0, the “Us, index of relative surface local anesthetic efficiency” value (rabbit cornea) is given as 0.1 and the LD50 (white mice) is given as 600 mg/kg.

Compound CC1COc2c(N3CCN(C)CC3)c(F)cc3c(=O)c(C(=O)O)cn1c23 (stereo not shown) [OFLX, ofloxacin, reference compound] has an MIC [2, 8] of 32 µM (≈ 11.6 µg/mL), an MIC [2, 9] of 62.5 µM (≈ 22.6 µg/mL) and an MIC [5, 10] of 1 µM (≈ 0.361 µg/mL). The MIC [5, 11] was 2 µM (≈ 0.723 µg/mL), the MIC [6, 12] was 0.5 µM (≈ 0.181 µg/mL) and the MIC [6, 13] was 1 µM (≈ 0.361 µg/mL). It also gave an MIC [6, 14] of 1 µM (≈ 0.361 µg/mL).

Compound O=C(O)c1cn(C2CC2)c2cc(N3CCNCC3)c(F)cc2c1=O [CPX, ciprofloxacin, reference compound] has an MIC [7] of 3 µM (≈ 0.994 µg/mL), an MIC [1] of 0.8 µM (≈ 0.265 µg/mL) and an MIC [3] of 0.4 µM (≈ 0.133 µg/mL).
